Measurements published in paper PMC6098685 (Journal of the American Chemical Society, 2018).

What was measured:
[1] = biological target: T1, β-Glucocerebrosidase (GCase) (Homo sapiens, UniProt P04062); assay: X-ray crystal structure; type: biochemical
T1 sequence (P04062 40-536): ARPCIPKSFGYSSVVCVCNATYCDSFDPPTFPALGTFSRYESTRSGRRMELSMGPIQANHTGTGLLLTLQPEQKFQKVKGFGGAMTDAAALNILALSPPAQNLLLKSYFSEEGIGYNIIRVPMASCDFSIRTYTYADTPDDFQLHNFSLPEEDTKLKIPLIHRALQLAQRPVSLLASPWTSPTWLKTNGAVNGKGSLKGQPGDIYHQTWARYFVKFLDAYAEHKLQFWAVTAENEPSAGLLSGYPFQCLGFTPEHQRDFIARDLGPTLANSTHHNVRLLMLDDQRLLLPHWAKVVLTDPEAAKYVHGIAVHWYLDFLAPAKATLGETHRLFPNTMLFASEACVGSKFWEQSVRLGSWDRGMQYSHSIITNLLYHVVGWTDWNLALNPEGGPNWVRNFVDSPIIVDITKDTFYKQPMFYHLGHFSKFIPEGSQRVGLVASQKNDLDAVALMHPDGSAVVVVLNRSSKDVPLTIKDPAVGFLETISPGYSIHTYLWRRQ

[2] = biological target: T1, β-Glucocerebrosidase (GCase); assay: 4MU-β-Glc fluorescence enzyme assay; type: biochemical

IC50 [1] [nM]	IC50 [2] [nM]	SMILES
56		O=C(CCCCCCCCC#Cc1ccc2c(c1)CC(Nc1nc(-c3cccnc3)nc3ccccc13)C2)ON1C(=O)CCC1=O (centres unmarked) [compound 4, JZ-5029]
	8	c1cncc(-c2nc(NC3Cc4ccccc4C3)c3ccccc3n2)c1 [compound 3, JZ-4109]
